The text below walks through data of article PMC11220654, “A Frog Skin‐Derived Peptide Targeting SCD1 Exerts Radioprotective Effects Against Skin Injury by Inhibiting STING‐Mediated Inflammation” (Advanced Science, 2024).

The structures appear in SMILES notation.

Assay type in all cases: cell-based, human
One experiment concerns irradiated skin cells. In words: LDH release and JC-1 staining with H151. Particulars: RIFSP-2 15 µM. The text has this: Next, we investigated whether suppression of the SCD1‐MUFA‐STING axis by RIFSP‐2 accounts for its protective effect against radiation injury in skin cells. […] Besides, Sting knockout dramatically limited the clonogenic formation ability after administration of RIFSP‐2 (Figure S4F, Supporting Information).
Figure 5 RIFSP‐2 mitigates radiation injury in a STING‐related manner. A) Cell proliferation and death assays for influence of RIFSP‐2 in primary skin cells from STING‐depleted and wild‐type mice detected by CCK‐8 and LDH analysis. B) LDH analysis of irradiated and nonirradiated skin cells pretreated with 15 µM RIFSP‐2 in combination with H151 or not. […]
A clonogenic survival assay of skin cells was performed as previously reported (1). […] Colonies consisting of 50 or more cells were counted as a clone. The relative clonogenic survival fraction was calculated using ImageJ software as previously reported […]
Cells were seeded in a 96-well plate at a density of 1 X 10^4 cells per well. […] In vitro viability was measured using the Cell Counting Kit-8 (CCK-8) (Dojindo Laboratories, Kumamoto, Japan).
Optical density was measured at 450 nm using a microplate reader (Biotek, Winooski, VT).
Cell death was measured by the level of LDH released into the supernatant using an LDH cytotoxicity assay kit (Beyotime, Nantong, China) according to the manufacturer’s instructions. […]

The next experiment deals with irradiated HaCaT cells. The experiment in a line: Autophagy, mRFP-GFP-LC3 infection study and LC3 II Western blotting. Particulars: 15 µM RIFSP-2, Western blotting. The source says:
Figure 4 MUFAs facilitate ionizing radiation‐induced STING activation, which is disrupted by RIFSP‐2. A) Bioinformatic analysis of the connection between specific binding proteins of RIFSP‐2 (green nodes) and STING (red nodes) in irradiated skin cells. B) Detection of the phosphorylation of STING in RIFSP‐2‐treated and irradiated HaCaT cells through IP analysis. C) Detection of the phosphorylation of TBK1 in RIFSP‐2‐treated primary skin cells from STING wild type mice and depletion ones through Western blotting analysis. D) Investigation of the interaction between STING and RIFSP‐2 in irradiated HaCaT cells based on the established Avidin‐Biotin‐RIFSP‐2 system. E) Volcano plots of differences between lipid class in irradiated HaCaT cells pretreated with RIFSP‐2 or not. F) Influence of LPC (18:1) and RIFSP‐2 in STING downstream signals in irradiated HaCaT cells through Western blotting analysis. G) Influence of LPC (18:1) and RIFSP‐2 in STING downstream inflammatory factors in irradiated HaCaT and RAW 264.7 cells through ELISA assays. […] J) Alteration of biomarkers for autophagy and pyroptosis in irradiated HaCaT cells pretreated with 15 µM RIFSP‐2 in combination with H151 or MF438, detected by Western blotting. *P < 0.05 and **P < 0.01, compared with the control group. […]

In experiment [1] the test system is skin cells. In words: BODIPY 581/591 C11 probe (ferroptosis) and AV/PI staining. The method, then:
Figure 3 RIFSP‐2 restrained SCD1‐mediated biogenesis of MUFA in irradiated skin cells. A) Schematic showing the proteomic analysis performed to investigate the interactome of RIFSP‐2 in irradiated skin cells, as determined by liquid chromatography with tandem mass spectrometry (LC–MS/MS), based on the Avidin‐Biotin‐RIFSP‐2 system. B) Bradford staining of proteins pulled down with Biotin‐RIFSP‐2 and Venn diagram showing common and specific interactomes detected by LC–MS/MS and representative proteins. C) The enriched functions of RIFSP‐2 interactomes in irradiated skin cells based on Gene Ontology (GO) molecular function analysis. D) Colocalization analysis showing FITC‐RIFSP‐2 (green) and ER‐Tracker (red) in irradiated HaCaT cells. E) Changes in neutral lipid droplet formation in irradiated skin cells treated with RIFSP‐2 detected via BODIPY 493/503 probe staining. F) Verification of the interaction between RIFSP‐2 and SCD1 through immunoprecipitation (IP) analysis. G) Molecular simulation of the interaction between RIFSP‐2 and SCD1. […] M–P) Influence of the SCD1 inhibitor MF438 on the neutral lipid droplet formation, […], as detected by BODIPY 493/503 probe staining, BODIPY 581/591 C11 probe staining and AV/PI staining. *P < 0.05 and **P < 0.01, compared with the control group. […]

Experiment [2] deals with skin cells. In words: BODIPY 493/503 probe staining, neutral lipid droplets. Particulars: pretreatment. The method, then: Figure 3 RIFSP‐2 restrained SCD1‐mediated biogenesis of MUFA in irradiated skin cells. A) Schematic showing the proteomic analysis performed to investigate the interactome of RIFSP‐2 in irradiated skin cells, as determined by liquid chromatography with tandem mass spectrometry (LC–MS/MS), based on the Avidin‐Biotin‐RIFSP‐2 system. B) Bradford staining of proteins pulled down with Biotin‐RIFSP‐2 and Venn diagram showing common and specific interactomes detected by LC–MS/MS and representative proteins. C) The enriched functions of RIFSP‐2 interactomes in irradiated skin cells based on Gene Ontology (GO) molecular function analysis. D) Colocalization analysis showing FITC‐RIFSP‐2 (green) and ER‐Tracker (red) in irradiated HaCaT cells. E) Changes in neutral lipid droplet formation in irradiated skin cells treated with RIFSP‐2 detected via BODIPY 493/503 probe staining. F) Verification of the interaction between RIFSP‐2 and SCD1 through immunoprecipitation (IP) analysis. G) Molecular simulation of the interaction between RIFSP‐2 and SCD1. […] M–P) Influence of the SCD1 inhibitor MF438 on the neutral lipid droplet formation, ferroptosis, and apoptosis of irradiated skin cells pretreated with RIFSP‐2, as detected by BODIPY 493/503 probe staining, BODIPY 581/591 C11 probe staining and AV/PI staining. *P < 0.05 and **P < 0.01, compared with the control group. […]

Experiment [3] concerns STING phosphorylation in irradiated skin cells. In words: STING phosphorylation by IP analysis. Particulars: irradiated skin cells (HaCaT). The source says: Considering the localization of RIFSP‐2 in ER, we then investigated the potential connection between RIFSP‐2 and STING. First, we adopted a proteomic analysis to investigated the interactomes of STING in HaCaT cells, and identified 136 specific proteins in response to radiation. Then, strong connections between specific interactomes for RIFSP‐2 and STING in irradiated skin cells were established in protein interactive analysis, with confidence score > 0.7 (high confidence) (Figure 4A).
Figure 4 MUFAs facilitate ionizing radiation‐induced STING activation, which is disrupted by RIFSP‐2. A) Bioinformatic analysis of the connection between specific binding proteins of RIFSP‐2 (green nodes) and STING (red nodes) in irradiated skin cells. B) Detection of the phosphorylation of STING in RIFSP‐2‐treated and irradiated HaCaT cells through IP analysis. C) Detection of the phosphorylation of TBK1 in RIFSP‐2‐treated primary skin cells from STING wild type mice and depletion ones through Western blotting analysis. […] J) Alteration of biomarkers for autophagy and pyroptosis in irradiated HaCaT cells pretreated with 15 µM RIFSP‐2 in combination with H151 or MF438, detected by Western blotting. *P < 0.05 and **P < 0.01, compared with the control group. […]
Cells were subjected to indicated treatments. […] The protein level was detected by the indicated antibodies with Western blotting analysis.

With `CCc1ccc(NC(=O)Nc2c[nH]c3ccccc23)cc1` [H151], the LDH release result with irradiated skin cells was “attenuated LDH release”. Besides, the “influence of pretreatment on the increase in LC3 II levels induced by RIFSP-2” value in the experiment with irradiated HaCaT cells was “not”.

Turning to `Cc1nnc(-c2ccc(N3CCC(Oc4ccccc4C(F)(F)F)CC3)nn2)s1` [MF‐438], the “influence of pretreatment on the RIFSP-2 effects on ferroptosis and AV staining” value with skin cells [1] is “diminished these effects”. The “influence of pretreatment on the increase in LC3 II levels induced by RIFSP-2” value in the experiment on irradiated HaCaT cells is on record as “dramatically limited the increase in LC3 II levels”. Also, in the experiment on skin cells [2], the “formation of neutral lipid droplets” value was “effectively promoted the formation of neutral lipid droplets”. Further, the STING phosphorylation result in experiment [3] is listed as “significant reduction in STING phosphorylation”.
